In one data set the test system is CYP2C9 mRNA. The experiment in a line: CYP2C9 mRNA induction in cryopreserved human hepatocytes. It is filed as in vitro ADME. Particulars: 0.03-30 μM; for CYP2C9 mRNA Fold induction: human hepatocytes, 48 hours.
The target in a further data set is T1, MATE1 (Homo sapiens, UniProt Q96FL8).
T1 construct: expressed in transfected cells; host or cells: MDCKII or HEK293
T1 sequence (Q96FL8 1-570): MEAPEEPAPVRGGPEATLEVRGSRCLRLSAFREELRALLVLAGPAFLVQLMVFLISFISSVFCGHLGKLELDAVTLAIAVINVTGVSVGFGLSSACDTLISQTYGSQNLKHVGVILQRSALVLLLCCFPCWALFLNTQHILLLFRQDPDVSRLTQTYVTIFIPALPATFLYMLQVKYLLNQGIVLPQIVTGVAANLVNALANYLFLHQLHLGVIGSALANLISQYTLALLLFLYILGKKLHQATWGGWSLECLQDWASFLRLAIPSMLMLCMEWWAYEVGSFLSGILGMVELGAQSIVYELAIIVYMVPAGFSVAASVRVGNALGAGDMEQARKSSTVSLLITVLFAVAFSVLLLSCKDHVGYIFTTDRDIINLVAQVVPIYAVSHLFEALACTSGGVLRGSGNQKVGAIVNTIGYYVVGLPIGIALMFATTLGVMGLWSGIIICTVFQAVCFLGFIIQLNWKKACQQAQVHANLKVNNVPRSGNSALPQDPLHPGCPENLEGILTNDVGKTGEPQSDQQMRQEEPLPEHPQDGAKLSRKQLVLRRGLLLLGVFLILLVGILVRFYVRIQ
The experiment in a line: MATE1 uptake transporter inhibition in MDCKII or HEK293 cells. In kind it is in vitro ADME. As for the experimental part: (§1) In addition, the inhibition potential against efflux transporters (P-glycoprotein (Pgp) and breast cancer resistance protein (BCRP)) and uptake transporters (MATE1, MATE2-K, OATP1B1, OATP1B3, OAT1, OAT3, and OCT2) was assessed using single transporter over-expressed cell monolayers (MDCK II or HEK293) or inside-out vesicles.
(§2) The potential of Compound A to inhibit Pgp or BCRP was tested for bidirectional transport of the probe substrates in Pgp or BCRP-expressed MDCKII and control monolayers at Compound A concentrations of 0.07-5 μM. Pgp and BCR inhibition were tested in inside-out membrane vesicles prepared from HEK293 overexpressing human Pgp and BCR at concentrations of 0.01-9 μM Compound A in the presence of 4 mM MgATP or MgAMP.

In the next data set the test system is Caco-2 cell monolayers. The experiment in a line: Bidirectional permeability in Caco-2 cell monolayers. In kind it is in vitro ADME. Particulars: 1% of BSA, 120 min incubation. As for the experimental part:
The potential of Compound A to act as an efflux transporter Pgp and BCRP as well as uptake transporter OATP1B1 and 1B3 were assessed in Caco-2 and single transporter over-expressed HEK29 cells, respectively.
The potential of Compound A to act as a substrate for Pgp and BCRP was examined in Caco-2 cells at the concentrations of 0.075, 0.75, 3.75 and 7.5 μM containing 1% of BSA. After 120 min incubation, the bidirectional permeability of Compound A was determined by LC-MS/MS. The involvement of Compound A as a substrate of OATP1B1 and OATP1B3 was assessed in the uptake transporter substrate assays at 4 concentrations (0.1, 0.5, 1 and 5 μM). Compound A in cell lysates was determined by LC-MS/MS.

The next data set relates to human hepatocytes. Description: Hepatocyte viability, upfront MTT assay. Particulars: 0.03-30 μM, after 2 days treatment. In kind it is cell-based. As for the experimental part: Positive control inducers behaved as expected (Table 1). Maximal 2.5-8.8-fold induction (4-6% of positive control response) in CYP3A4 mRNA were found at 0.1-0.3 μM in all three donors, and 3.1-fold for CYP2C8 mRNA in one of three lots (donor 3 only) at 0.1 μM (28% of positive control response). The induction response was attenuated at higher concentrations (Table 1).
On the technique in general: Formazan colour is commonly taken as a measure of viable cells.

The next data set addresses Pgp (Homo sapiens, UniProt P08183). The experiment in a line: Pgp inhibition in inside-out membrane vesicles from HEK293. It is filed as in vitro ADME. The arrangement: expressed in transfected cells; host or cells: HEK293 (inside-out membrane vesicles). As for the experimental part:
as §1, §2

Another data set has as its system CYP2C8 mRNA. Description: CYP2C8 mRNA induction in cryopreserved human hepatocytes. In kind it is in vitro ADME. The conditions noted are these: for CYP2C8 mRNA Fold induction: human hepatocytes.
Another data set deals with T2, OATP1B3 (Homo sapiens, UniProt Q9NPD5).
T2 sequence (Q9NPD5 1-702): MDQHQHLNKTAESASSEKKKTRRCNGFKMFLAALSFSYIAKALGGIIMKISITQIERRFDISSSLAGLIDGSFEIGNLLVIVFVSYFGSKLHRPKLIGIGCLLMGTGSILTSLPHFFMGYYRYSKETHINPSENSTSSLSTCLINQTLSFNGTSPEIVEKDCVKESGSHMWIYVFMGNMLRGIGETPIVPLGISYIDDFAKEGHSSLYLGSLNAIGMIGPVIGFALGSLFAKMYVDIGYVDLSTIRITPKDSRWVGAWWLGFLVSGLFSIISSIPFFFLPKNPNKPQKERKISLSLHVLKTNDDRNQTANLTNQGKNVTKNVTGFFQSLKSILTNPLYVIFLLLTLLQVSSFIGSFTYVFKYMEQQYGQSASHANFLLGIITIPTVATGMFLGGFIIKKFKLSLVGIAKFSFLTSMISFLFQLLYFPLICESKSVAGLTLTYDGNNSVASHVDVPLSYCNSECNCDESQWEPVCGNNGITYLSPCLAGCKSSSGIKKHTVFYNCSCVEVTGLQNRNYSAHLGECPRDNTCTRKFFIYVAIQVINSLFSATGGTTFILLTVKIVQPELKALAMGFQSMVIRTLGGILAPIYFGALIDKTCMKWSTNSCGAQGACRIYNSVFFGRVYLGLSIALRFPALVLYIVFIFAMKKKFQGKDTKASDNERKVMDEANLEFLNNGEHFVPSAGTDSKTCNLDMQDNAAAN
Description: OATP1B3 uptake transporter inhibition in MDCKII or HEK293 cells. In kind it is in vitro ADME. The arrangement: expressed in transfected cells; host or cells: MDCKII or HEK293. The conditions noted are these: substrate Rosuvastatin (1 μM). As for the experimental part: as §1, §2

Bounds are passed on as bounds.

Pgp, sequence (P08183 whole entry): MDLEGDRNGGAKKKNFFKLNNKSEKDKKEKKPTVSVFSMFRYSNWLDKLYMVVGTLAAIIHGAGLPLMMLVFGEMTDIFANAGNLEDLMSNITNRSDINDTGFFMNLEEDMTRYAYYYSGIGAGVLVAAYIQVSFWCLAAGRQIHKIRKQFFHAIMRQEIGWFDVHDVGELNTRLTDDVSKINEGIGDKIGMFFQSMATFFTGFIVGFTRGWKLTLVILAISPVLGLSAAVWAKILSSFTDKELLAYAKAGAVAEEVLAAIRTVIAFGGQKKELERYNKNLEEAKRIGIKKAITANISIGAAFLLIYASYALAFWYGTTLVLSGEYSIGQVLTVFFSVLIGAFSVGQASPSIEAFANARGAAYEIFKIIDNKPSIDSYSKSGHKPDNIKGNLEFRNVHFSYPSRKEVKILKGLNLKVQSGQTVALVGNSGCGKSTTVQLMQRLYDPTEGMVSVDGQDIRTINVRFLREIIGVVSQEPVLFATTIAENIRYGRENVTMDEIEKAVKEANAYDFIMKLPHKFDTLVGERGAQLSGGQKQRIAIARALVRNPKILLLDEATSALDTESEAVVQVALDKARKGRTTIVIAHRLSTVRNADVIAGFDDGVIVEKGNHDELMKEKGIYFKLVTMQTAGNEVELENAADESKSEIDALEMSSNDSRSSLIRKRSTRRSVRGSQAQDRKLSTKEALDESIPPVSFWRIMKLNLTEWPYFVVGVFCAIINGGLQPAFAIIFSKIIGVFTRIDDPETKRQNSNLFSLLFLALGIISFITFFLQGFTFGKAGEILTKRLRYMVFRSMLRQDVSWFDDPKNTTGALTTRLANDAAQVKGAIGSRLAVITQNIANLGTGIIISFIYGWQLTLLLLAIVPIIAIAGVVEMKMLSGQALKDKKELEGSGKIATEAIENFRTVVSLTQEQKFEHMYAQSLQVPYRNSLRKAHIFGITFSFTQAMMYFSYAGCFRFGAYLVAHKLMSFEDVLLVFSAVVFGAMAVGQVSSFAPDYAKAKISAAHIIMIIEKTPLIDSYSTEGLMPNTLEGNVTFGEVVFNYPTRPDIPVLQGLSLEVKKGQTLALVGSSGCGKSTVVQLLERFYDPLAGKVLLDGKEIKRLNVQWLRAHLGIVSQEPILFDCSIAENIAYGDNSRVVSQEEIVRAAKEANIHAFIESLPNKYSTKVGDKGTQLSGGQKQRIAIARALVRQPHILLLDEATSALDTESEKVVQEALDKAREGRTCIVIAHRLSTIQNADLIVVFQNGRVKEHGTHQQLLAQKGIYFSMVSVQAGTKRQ

A word on the IC50: it is the concentration that inhibits the measured activity by half. The term EC50 denotes the concentration at which the effect is half-maximal. Broadly, the inhibition is the percentage by which the read-out fell short of the control. Consider `COc1cc(O[C@H]2C(C)(C)[C@H](NC(=O)c3ccc(N4CCC(CN5CCN(c6ccc(C(=O)N[C@H]7CCC(=O)NC7=O)c(F)c6)CC5)CC4)cc3)C2(C)C)ccc1C#N` [Compound A, 4-(4-((1-(4-(((1R,3R)-3-(4-cyano-3-methoxyphenoxy)-2,2,4,4-tetramethylcyclobutyl)carbamoyl)phenyl)piperidin-4-yl)methyl)piperazin-1-yl)-N—((S)-2,6-dioxopiperidin-3-yl)-2-fluorobenzamide], for which the “CYP2C9 mRNA Fold induction” value in the data set on CYP2C9 mRNA (Donor 1), with CYP2C9 mRNA (Donor 2) and with CYP2C9 mRNA (Donor 3) was under 2 Fold throughout. Also, in the data set on CYP2C9 mRNA (all three donors of human hepatocytes), the “Induction of CYP2C9 mRNA” value was “did not induce”. In addition, the IC50 at MATE1 (MATE1, substrate Metformin (10 μM)) was 3.05 µM; against Pgp (vesicle assays), 0.23 µM; at OATP1B3, over 3.75 µM. The compound also came in with an EC50 on MATE1 (MATE1 inhibition) of 3.05 µM. For the same compound, at MATE1 (MDCKII or HEK293 cells stably expressing MATE1, probe Metformin (10 μM), at a concentration of 3.75 μM), at 3.75 µM the inhibition was 52%. The “Permeability in Caco-2 cell monolayers” value in the data set with Caco-2 cell monolayers is reported as “low permeability”. Moreover, the Hepatocyte viability result in the data set with human hepatocytes was “no significant decrease”. Also, at Pgp (human, probe NMQ (1 μM), Vesicles, substrate NMQ (1 μM), read-out: Maximal % Inhibition), the inhibition at 1 µM was determined as 87%. The “CYP2C8 mRNA Fold induction” value in the data set with CYP2C8 mRNA (Donor 1, 0.03-30 μM, 48 hours) is reported as under 2 Fold; in the data set on CYP2C8 mRNA (Donor 2, 0.03-30 μM, 48 hours) it was under 2 Fold; in the data set on CYP2C8 mRNA (Donor 3, maximal, at 0.1 μM), 3.1 Fold. In addition, the “CYP2C8 mRNA induction, % PC” value in the data set with CYP2C8 mRNA (Donor 3, % of positive control response, at 0.1 μM) turned out to be 28 % PC.

The record behind these values is patent publication US20250009737A1, “COMPOUNDS AND METHODS FOR THE TARGETED DEGRADATION OF ANDROGEN RECEPTOR” (Arvinas Operations, Inc., priority 2023, published 2025).
